Patent US20070072181A1 (priority 2003, published 2007)
Read-outs that look alike come from different tables or passages of the source.

Test system: VSV
Format: cell-based

In the case of `Cc1ccc(=O)n(-c2ccccc2)c1` [PD, 5-methyl-1-phenyl-2-(1H)-pyridone], the “Mean (Means for Oneway Anova; antiviral effect)” value (from here on “Mean”) (0.001 ng interferon + 3 μg pirfenidone (PD), HeLa, VSV) is reported as 0.6002, the “Mean” value (0.001 ng interferon + 30 μg pirfenidone (PD), HeLa, VSV) is reported as 0.543 and the “Mean” value (0.001 ng interferon + 300 μg pirfenidone (PD), HeLa, VSV) is reported as 0.3705. For the same compound, the “Mean” value (0.0049 ng interferon + 3 μg pirfenidone (PD), HeLa, VSV) was 0.407, the “Mean” value (0.0049 ng interferon + 30 μg pirfenidone (PD), HeLa, VSV) was 0.3033 and the “Mean” value (0.0049 ng interferon + 300 μg pirfenidone (PD), HeLa, VSV) was 0.1915. The “Mean” value (0.019 ng interferon + 3 μg pirfenidone (PD), HeLa, VSV) was 0.519, the “Mean” value (0.019 ng interferon + 30 μg pirfenidone (PD), HeLa, VSV) was 0.284 and the “Mean” value (0.019 ng interferon + 300 μg pirfenidone (PD), HeLa, VSV) was 0.1785. For the same compound, the “Mean” value (0.076 ng interferon + 3 μg pirfenidone (PD), HeLa, VSV) was 0.68, the “Mean” value (0.076 ng interferon + 30 μg pirfenidone (PD), HeLa, VSV) was 0.4505 and the “Mean” value (0.076 ng interferon + 300 μg pirfenidone (PD), HeLa, VSV) was 0.1938. For the same compound, the “Mean” value (0.3 ng interferon + 3 μg pirfenidone (PD), HeLa, VSV) was 0.5563, the “Mean” value (0.3 ng interferon + 30 μg pirfenidone (PD), HeLa, VSV) was 0.4298 and the “Mean” value (0.3 ng interferon + 300 μg pirfenidone (PD), HeLa, VSV) was 0.1948. For the same compound, the “Mean” value (1.2 ng interferon + 3 μg pirfenidone (PD), HeLa, VSV) was 0.306, the “Mean” value (1.2 ng interferon + 30 μg pirfenidone (PD), HeLa, VSV) was 0.4248 and the “Mean” value (1.2 ng interferon + 300 μg pirfenidone (PD), HeLa, VSV) was 0.1872. For the same compound, the “Mean” value (4.8 ng interferon + 3 μg pirfenidone (PD), HeLa, VSV) was 0.245, the “Mean” value (4.8 ng interferon + 30 μg pirfenidone (PD), HeLa, VSV) was 0.3757 and the “Mean” value (4.8 ng interferon + 300 μg pirfenidone (PD), HeLa, VSV) was 0.325. For the same compound, the “Mean” value (19 ng interferon + 3 μg pirfenidone (PD), HeLa, VSV) was 0.979, the “Mean” value (19 ng interferon + 30 μg pirfenidone (PD), HeLa, VSV) was 0.2968 and the “Mean” value (19 ng interferon + 300 μg pirfenidone (PD), HeLa, VSV) was 0.4105. The “effect on the antiviral effects of interferon” value (low doses of Pirfenidone with interferon, HeLa, VSV) was “enhance the antiviral effects of interferon” and the “effect on viral growth in combination with IFN-α” value (low doses of pirfenidone in combination therapy with IFN-α) was “synergistic effect on reducing viral growth”.
